Assay results published in patent publication US20210315882A1, “METHODS OF TREATING A PATIENT HAVING PARKINSON'S DISEASE” (Sunovion Pharmaceuticals Inc., priority 2019, published 2021).

Test system: patients with Parkinson's disease and “OFF” episodes
Assay: Post hoc analysis of Phase 3 study: motor responses to apomorphine sublingual film compared with levodopa
Assay type: in vivo, human
Source text: Patients described in Table 9 were enrolled in a study. At screening, patients attended morning in-office visits in the “OFF” state and received their usual morning dose of levodopa without adjunctive PD medications and were both self- and investigator-assessed for a FULL “ON” response (levodopa challenge; FIG. 9). An “OFF” state was accomplished by withholding levodopa and any other adjunctive PD medications after midnight the night before each morning in-office visit.

SMILES: N[C@@H](Cc1ccc(O)c(O)c1)C(=O)O [levodopa]
- Responder rate (≥30% decrease in MDS-UPDRS III score from predose) (15 minutes postdose): 18%
- Responder rate (≥30% decrease in MDS-UPDRS III score from predose) (30 minutes postdose): 50%
- time of mean peak response across the time points measured (MDS-UPDRS III score): 95 min
- magnitude of observed peak response in MDS-UPDRS III score (mean±SE) (across the time points measured): −27.9±1.20
- change in MDS-UPDRS III score from predose at 15 minutes postdose (mean±SE) (open-label, film at dose giving FULL “ON”, levodopa usual morning dose, n = 109): −6.0±0.72
